Data published in US20240245607A1, “Microencapsulation of Active Agents” (Temple University-Of The Commonwealth System of Higher …, priority 2016, published 2024).
Where a name gives a salt, the structure may show the parent alone. Read-outs that look alike come from different tables or passages of the source.

Key:
[1] = IR spectra of encapsulated compounds in stearic acid microspheres (degradation); format: physicochemical
Procedure: Bitter taste stimuli are prepared in a similar manner, except at a pH of 8.0. Along with stearic acid, SOA is melted at ˜100° C., quinine HCl·7H2O is melted at ˜165° C., quinine HCl·2H2O is melted at 116° C., or n-propylthiouracil (PROP) is melted at ˜150° C. before addition to a rapidly stirred buffer solution. […] The quinine content of microspheres is measured by fluorescence emission or by absorbance in the ultra-violet region. SOA content of microspheres is measured by the anthrone reaction, and PROP and PTC content of microspheres is measured by UV absorption at 275 nm.
After drying, loaded microspheres are dissolved in a solvent such as acetonitrile or acetonitrile/HEPES, and the encapsulated compound is assayed by absorption spectroscopy, fluorescence emission, or infra-red spectroscopy. The melting point is then measured in order to identify the melting point range of the microspheres. If needed, these lipid microspheres could be embedded within pullulan-based films for long term storage. Stearic acid microspheres encapsulate 2,4-D or DCMU (Diuron) at a weight-to-weight ratio of approximately 15:I. In addition, the melting point of lipid microspheres is lowered to 38-40° C. for the controlled release of these compounds from microspheres. The melting temperature range varies from 8 to 10° C.

sweet taste = conditions: cited from earlier work

SMILES | degradation of components by IR spectra [1] | further results
O=[N+]([O-])c1ccc(O)c([N+](=O)[O-])c1 [2,4-dinitrophenol] |  | degradation by IR data ([1]; after encapsulation within stearic acid microspheres): not degraded
CN(C)C(=O)Nc1ccc(Cl)c(Cl)c1 [DCMU, diuron] |  | degradation by IR data [1]: undegraded
CCCc1cc(=O)[nH]c(=S)[nH]1 [PROP, n-propylthiouracil] | no components were graded | 
CC(=O)OC[C@H]1O[C@@](COC(C)=O)(O[C@H]2O[C@H](COC(C)=O)[C@@H](OC(C)=O)[C@H](OC(C)=O)[C@H]2OC(C)=O)[C@@H](OC(C)=O)[C@@H]1OC(C)=O [SOA, sucrose octaacetate] | no components were graded | 
C=C[C@H]1C[N@@]2CC[C@H]1C[C@H]2[C@H](O)c1ccnc2ccc(OC)cc12 [quinine, quinine HCl] | no components were graded | 
OC[C@H]1O[C@H](O[C@]2(CCl)O[C@H](CCl)[C@@H](O)[C@@H]2O)[C@H](O)[C@@H](O)[C@H]1Cl [sucralose] | no components were graded | sweetness compared with sucrose (sweet taste): approximately 600 times
